Experiments:
Cynomolgus monkey [1] = test: Toxicity in cynomolgus monkey assessed as postmortem parameters measured up to 9 months; type: organism-based, Macaca fascicularis; conditions: in vivo
[2] = Half life in cynomolgus monkey at 0.5 mg/kg, iv or 2 mg/kg, po; type: ADME, organism-based, Macaca fascicularis; conditions: in vivo
Cynomolgus monkey [3] = test: Dose normalized fAUC in cynomolgus monkey at 2 mg/kg, po; type: ADME, organism-based, Macaca fascicularis; conditions: in vivo
[4] = Fraction unbound in cynomolgus monkey at 0.5 mg/kg, iv or 2 mg/kg, po; type: ADME, organism-based, Macaca fascicularis; conditions: in vivo
Cytochrome P450 1A2 = Cytochrome P450 1A2 (Homo sapiens, UniProt P05177); test: Inhibition of CYP1A2 in human liver microsomes; type: ADME
Chain of Cytochrome P450 1A2 (P05177 whole entry): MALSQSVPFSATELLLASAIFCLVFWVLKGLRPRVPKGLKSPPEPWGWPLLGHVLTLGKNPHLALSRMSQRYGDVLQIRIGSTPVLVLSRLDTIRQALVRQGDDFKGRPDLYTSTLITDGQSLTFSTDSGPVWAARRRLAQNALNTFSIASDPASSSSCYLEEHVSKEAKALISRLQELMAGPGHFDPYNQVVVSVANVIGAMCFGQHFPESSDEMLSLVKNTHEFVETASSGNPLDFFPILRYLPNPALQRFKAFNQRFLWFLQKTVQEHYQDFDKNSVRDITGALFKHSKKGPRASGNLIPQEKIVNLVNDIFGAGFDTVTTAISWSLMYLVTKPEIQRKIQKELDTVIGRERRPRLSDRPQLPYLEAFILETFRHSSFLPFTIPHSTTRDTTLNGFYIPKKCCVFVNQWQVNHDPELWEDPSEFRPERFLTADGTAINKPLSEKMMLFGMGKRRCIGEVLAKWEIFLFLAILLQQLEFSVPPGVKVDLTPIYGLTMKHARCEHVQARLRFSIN

[5] = molecular target: Beta-3 adrenergic receptor (Rattus norvegicus) (UniProt P26255); test: Agonist activity at rat beta3 adrenergic receptor expressed in CHO cells assessed as accumulation of cAMP after 30 mins by TR-FRET assay in presence of 40% serum relative to (R)-(-)-isoproterenol; type: functional, cell-based
Chain of Beta-3 adrenergic receptor (Rattus norvegicus) (P26255 whole entry): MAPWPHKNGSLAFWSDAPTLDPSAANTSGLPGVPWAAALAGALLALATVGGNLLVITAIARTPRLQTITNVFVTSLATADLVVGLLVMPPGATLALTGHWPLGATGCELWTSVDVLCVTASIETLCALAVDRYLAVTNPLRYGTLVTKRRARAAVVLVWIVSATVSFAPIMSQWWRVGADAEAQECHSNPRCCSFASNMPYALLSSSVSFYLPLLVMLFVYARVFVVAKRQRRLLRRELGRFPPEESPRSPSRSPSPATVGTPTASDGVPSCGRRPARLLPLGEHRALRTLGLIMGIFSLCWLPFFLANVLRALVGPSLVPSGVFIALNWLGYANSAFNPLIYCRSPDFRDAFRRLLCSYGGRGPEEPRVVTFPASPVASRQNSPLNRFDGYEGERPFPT

[6] = molecular target: Beta-3 adrenergic receptor (Macaca mulatta) (UniProt Q28524); test: Agonist activity at rhesus monkey beta3 adrenergic receptor expressed in CHO cells assessed as accumulation of cAMP after 30 mins by TR-FRET assay in presence of 40% serum relative to (R)-(-)-isoproterenol; type: functional, cell-based
Chain of Beta-3 adrenergic receptor (Macaca mulatta) (Q28524 whole entry): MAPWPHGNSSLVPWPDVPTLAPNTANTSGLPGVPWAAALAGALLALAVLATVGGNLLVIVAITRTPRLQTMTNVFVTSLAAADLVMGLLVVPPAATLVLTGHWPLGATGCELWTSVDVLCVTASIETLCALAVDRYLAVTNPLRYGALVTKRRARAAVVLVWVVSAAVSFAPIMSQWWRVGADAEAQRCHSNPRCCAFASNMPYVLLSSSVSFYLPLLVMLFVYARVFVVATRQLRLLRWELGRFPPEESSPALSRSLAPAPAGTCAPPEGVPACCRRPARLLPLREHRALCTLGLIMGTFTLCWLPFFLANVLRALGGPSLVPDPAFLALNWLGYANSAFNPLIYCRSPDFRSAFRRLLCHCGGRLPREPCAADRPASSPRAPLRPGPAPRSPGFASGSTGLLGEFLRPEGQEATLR

[7] = molecular target: Sodium-dependent serotonin transporter (Homo sapiens, UniProt P31645); test: Inhibition of human SERT expressed in HEK293 cells preincubated for 30 mins followed by fluorescent substrate addition measured after 30 mins by plate reader analysis; type: cell-based
[8] = Distribution coefficient, logD of the compound at pH 7.4; type: physicochemical; conditions: octanol/water
[9] = molecular target: Voltage-dependent L-type calcium channel subunit alpha-1C (Homo sapiens, UniProt Q13936); test: Displacement of [3H]-diltiazem from human Cav1.2 channel
Chain of Voltage-dependent L-type calcium channel subunit alpha-1C (Q13936 whole entry): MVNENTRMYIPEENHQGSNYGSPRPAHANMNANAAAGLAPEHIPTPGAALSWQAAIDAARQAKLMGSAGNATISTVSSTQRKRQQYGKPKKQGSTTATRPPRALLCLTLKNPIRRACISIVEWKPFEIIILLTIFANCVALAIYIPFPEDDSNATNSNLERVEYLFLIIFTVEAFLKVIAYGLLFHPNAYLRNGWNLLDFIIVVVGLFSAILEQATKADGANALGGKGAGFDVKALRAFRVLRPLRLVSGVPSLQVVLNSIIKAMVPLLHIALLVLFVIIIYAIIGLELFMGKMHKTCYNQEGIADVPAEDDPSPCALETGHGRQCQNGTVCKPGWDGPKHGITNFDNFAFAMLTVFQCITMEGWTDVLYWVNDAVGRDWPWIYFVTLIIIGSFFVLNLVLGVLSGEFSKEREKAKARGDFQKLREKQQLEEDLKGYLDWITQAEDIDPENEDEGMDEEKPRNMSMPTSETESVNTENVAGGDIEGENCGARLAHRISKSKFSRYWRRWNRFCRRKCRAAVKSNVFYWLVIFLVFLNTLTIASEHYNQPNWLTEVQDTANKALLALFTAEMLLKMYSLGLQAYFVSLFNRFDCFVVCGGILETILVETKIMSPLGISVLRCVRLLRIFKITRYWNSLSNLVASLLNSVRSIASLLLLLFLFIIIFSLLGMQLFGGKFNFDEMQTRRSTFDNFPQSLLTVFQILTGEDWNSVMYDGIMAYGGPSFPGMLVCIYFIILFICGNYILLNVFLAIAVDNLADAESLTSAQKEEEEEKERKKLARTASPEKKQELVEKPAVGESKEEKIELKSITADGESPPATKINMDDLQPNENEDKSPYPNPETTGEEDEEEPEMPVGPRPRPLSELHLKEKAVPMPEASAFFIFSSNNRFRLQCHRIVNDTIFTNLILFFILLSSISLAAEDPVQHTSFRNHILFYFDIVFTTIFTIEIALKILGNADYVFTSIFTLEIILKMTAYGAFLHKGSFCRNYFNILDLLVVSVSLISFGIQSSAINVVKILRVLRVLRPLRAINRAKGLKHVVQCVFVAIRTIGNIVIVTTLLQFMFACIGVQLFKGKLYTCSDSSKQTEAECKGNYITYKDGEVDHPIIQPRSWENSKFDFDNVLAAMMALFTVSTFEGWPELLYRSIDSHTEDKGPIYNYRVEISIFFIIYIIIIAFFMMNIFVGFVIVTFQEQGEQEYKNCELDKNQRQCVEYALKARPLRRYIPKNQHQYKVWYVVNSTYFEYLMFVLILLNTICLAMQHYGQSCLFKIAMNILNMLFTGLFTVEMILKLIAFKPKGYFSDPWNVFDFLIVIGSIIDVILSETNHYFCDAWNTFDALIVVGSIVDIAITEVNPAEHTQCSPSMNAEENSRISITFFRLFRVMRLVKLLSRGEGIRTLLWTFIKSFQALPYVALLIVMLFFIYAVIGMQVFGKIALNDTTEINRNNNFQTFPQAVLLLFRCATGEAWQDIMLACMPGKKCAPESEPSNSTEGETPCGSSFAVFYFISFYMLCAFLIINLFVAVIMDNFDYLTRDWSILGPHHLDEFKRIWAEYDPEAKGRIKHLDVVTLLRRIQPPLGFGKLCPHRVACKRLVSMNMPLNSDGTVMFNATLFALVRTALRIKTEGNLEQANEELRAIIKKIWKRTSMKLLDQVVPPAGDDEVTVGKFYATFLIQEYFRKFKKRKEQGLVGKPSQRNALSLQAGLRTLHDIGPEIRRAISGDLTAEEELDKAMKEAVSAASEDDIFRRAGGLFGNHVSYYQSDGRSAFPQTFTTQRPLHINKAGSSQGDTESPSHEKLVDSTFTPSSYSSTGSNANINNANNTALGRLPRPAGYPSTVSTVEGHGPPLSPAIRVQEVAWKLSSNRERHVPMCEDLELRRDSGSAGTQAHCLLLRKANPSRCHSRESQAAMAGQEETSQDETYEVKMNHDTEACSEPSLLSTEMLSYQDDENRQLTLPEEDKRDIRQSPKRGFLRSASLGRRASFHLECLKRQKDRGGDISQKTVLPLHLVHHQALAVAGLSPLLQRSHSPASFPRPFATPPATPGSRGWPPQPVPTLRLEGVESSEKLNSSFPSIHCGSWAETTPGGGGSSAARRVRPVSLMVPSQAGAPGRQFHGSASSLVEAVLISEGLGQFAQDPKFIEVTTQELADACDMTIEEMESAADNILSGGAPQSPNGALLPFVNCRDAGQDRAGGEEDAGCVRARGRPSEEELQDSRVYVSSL

Cytochrome P450 2D6 = Cytochrome P450 2D6 (Homo sapiens, UniProt P10635); test: Inhibition of CYP2D6 in human liver microsomes assessed as dextraomethorphan O-demethylation; type: ADME
Chain of Cytochrome P450 2D6 (P10635 whole entry): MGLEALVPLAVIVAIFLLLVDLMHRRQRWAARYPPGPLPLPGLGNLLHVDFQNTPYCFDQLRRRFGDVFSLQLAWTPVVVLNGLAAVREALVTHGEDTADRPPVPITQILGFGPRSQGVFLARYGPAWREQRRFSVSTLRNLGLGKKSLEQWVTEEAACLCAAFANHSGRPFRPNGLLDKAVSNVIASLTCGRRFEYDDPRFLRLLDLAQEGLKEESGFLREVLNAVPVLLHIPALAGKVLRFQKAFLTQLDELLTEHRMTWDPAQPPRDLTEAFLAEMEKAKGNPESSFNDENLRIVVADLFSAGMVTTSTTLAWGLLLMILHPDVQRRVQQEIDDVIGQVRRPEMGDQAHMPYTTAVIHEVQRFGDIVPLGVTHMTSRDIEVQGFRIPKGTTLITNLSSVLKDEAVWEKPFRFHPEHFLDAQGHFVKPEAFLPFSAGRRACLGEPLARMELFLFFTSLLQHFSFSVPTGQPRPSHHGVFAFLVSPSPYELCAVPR

Cytochrome P450 2C9 = Cytochrome P450 2C9 (Homo sapiens, UniProt P11712); test: Inhibition of CYP2C9 in human liver microsomes assessed as diclofenac alpha'-hydroxylation; type: ADME
Chain of Cytochrome P450 2C9 (P11712 whole entry): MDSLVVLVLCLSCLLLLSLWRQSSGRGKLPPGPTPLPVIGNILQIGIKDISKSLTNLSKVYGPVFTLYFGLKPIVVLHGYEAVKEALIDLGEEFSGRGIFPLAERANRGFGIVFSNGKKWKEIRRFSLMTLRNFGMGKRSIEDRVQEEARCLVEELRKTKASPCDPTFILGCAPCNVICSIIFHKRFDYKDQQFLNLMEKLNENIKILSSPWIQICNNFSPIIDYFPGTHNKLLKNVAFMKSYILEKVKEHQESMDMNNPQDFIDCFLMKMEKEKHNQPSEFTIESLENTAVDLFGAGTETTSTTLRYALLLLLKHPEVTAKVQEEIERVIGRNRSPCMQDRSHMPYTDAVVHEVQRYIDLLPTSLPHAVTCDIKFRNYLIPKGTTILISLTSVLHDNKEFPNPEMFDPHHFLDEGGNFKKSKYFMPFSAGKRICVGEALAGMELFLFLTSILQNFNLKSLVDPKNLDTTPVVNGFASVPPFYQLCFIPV

[10] = molecular target: Beta-3 adrenergic receptor (Homo sapiens, UniProt P13945); test: Agonist activity at human beta3 adrenergic receptor expressed in CHO cells assessed as accumulation of cAMP after 30 mins by TR-FRET assay relative to (R)-(-)-isoproterenol; type: functional, cell-based
[11] = Plasma clearance in rat at 1 mg/kg, iv or 2 mg/kg, po; type: ADME, organism-based
[12] = Plasma clearance in rhesus monkey at 0.5 mg/kg, iv or 2 mg/kg, po; type: ADME, organism-based, Macaca mulatta
Canis familiaris = test: Unbound clearance in dog at 0.5 mg/kg, iv or 2 mg/kg, po; type: ADME, organism-based, Canis lupus familiaris; conditions: in vivo
Rhesus monkey [13] = test: Unbound clearance in rhesus monkey at 0.5 mg/kg, iv or 2 mg/kg, po; type: ADME, organism-based, Macaca mulatta; conditions: in vivo
[14] = Half life in rat at 1 mg/kg, iv or 2 mg/kg, po; type: ADME, organism-based; conditions: in vivo
Rhesus monkey [15] = test: Dose normalized total AUC in rhesus monkey at 2 mg/kg, po; type: ADME, organism-based, Macaca mulatta; conditions: in vivo
Rattus norvegicus [16] = test: Dose normalized fAUC in rat at 2 mg/kg, po; type: ADME, organism-based; conditions: in vivo
[17] = Oral bioavailability in dog at 2 mg/kg; type: ADME, organism-based, Canis lupus familiaris; conditions: in vivo
[18] = Oral bioavailability in rhesus monkey at 2 mg/kg; type: ADME, organism-based, Macaca mulatta; conditions: in vivo
[19] = Fraction unbound in rat at 1 mg/kg, iv or 2 mg/kg, po; type: ADME, organism-based; conditions: in vivo
[20] = Fraction unbound in dog at 0.5 mg/kg, iv or 2 mg/kg, po; type: ADME, organism-based, Canis lupus familiaris; conditions: in vivo
[21] = Fraction unbound in rhesus monkey at 0.5 mg/kg, iv or 2 mg/kg, po; type: ADME, organism-based, Macaca mulatta; conditions: in vivo
[22] = Intrinsic clearance in human liver microsomes; type: ADME; conditions: read-out: CLH
[23] = Stability in dog plasma assessed as parent compound remaining at 24 hrs by LC-MS analysis; type: ADME, cell-free, Canis lupus familiaris; conditions: read-out: Stability
[24] = Stability in rhesus monkey plasma assessed as parent compound remaining at 24 hrs by LC-MS analysis; type: ADME, cell-free, Macaca mulatta; conditions: read-out: Stability
[25] = molecular target: Beta-3 adrenergic receptor (Rattus norvegicus, UniProt P26255); test: Agonist activity at rat beta3 adrenergic receptor expressed in CHO cells assessed as accumulation of cAMP after 30 mins by TR-FRET assay; type: functional, cell-based
[26] = molecular target: Beta-3 adrenergic receptor (Macaca mulatta) (UniProt Q28524); test: Agonist activity at rhesus monkey beta3 adrenergic receptor expressed in CHO cells assessed as accumulation of cAMP after 30 mins by TR-FRET assay relative to (R)-(-)-isoproterenol; type: functional, cell-based
[27] = molecular target: Beta-3 adrenergic receptor (Macaca mulatta, UniProt Q28524); test: Agonist activity at rhesus monkey beta3 adrenergic receptor expressed in CHO cells assessed as accumulation of cAMP after 30 mins by TR-FRET assay in presence of 40% serum; type: functional, cell-based
Chain of Beta-3 adrenergic receptor (Macaca mulatta, UniProt Q28524) (Q28524 whole entry, the tested form may be a part): as the sequence (Q28524 whole entry) above

Rattus norvegicus [28] = test: Increase in detrusor muscle relaxation in iv infused Sprague-Dawley rat acetic acid-induced bladder hyperreflexia model assessed as decrease in micturition pressure measured over 30 to 45 mins; type: functional, organism-based
Rattus norvegicus [29] = test: Increase in detrusor muscle relaxation in iv infused Sprague-Dawley rat acetic acid-induced bladder hyperreflexia model assessed as increase in functional bladder capacity measured over 30 to 45 mins; type: organism-based
Rattus norvegicus [30] = test: Increase in circulating glycerol level in iv infused Sprague-Dawley rat after 45 mins by liquid chromatography-tandem mass spectrometric analysis; type: functional
[31] = Drug recovery in bile duct cannulated rat urine at 10 mg/kg, po measured over 48 hrs; type: ADME, organism-based; conditions: read-out: Drug recovery
[32] = Drug recovery in bile duct cannulated rat at 10 mg/kg, po measured over 48 hrs; type: ADME, organism-based; conditions: in vivo, read-out: Drug recovery
[33] = Drug recovery in bile duct cannulated rat at 5 mg/kg, iv measured over 48 hrs; type: ADME, organism-based; conditions: in vivo, read-out: Drug recovery
Cytochrome P450 3A4 = Cytochrome P450 3A4 (Homo sapiens, UniProt P08684); test: Time-dependent inhibition of CYP3A4 in human liver microsomes up to 50 uM; type: ADME
Hepatocyte = test: Increase in CYP3A4 mRNA expression in human hepatocytes up to 10 uM; type: ADME, cell-based
[34] = molecular target: Nuclear receptor subfamily 1 group I member 2 (Homo sapiens, UniProt O75469); test: Activation of human PX receptor
[35] = Solubility of the compound in fed-simulated intestinal fluid; type: ADME; conditions: fed-state simulated intestinal fluid
[36] = Solubility of the compound in fasted-simulated intestinal fluid; type: ADME; conditions: fasted-state simulated intestinal fluid
[37] = Solubility of the compound in buffer at pH <= […]; type: physicochemical
MDR1 (human) = test: Apparent permeability of the compound in pig LLC-PK1 cells expressing human MDR1 at 5 uM measured at 3 hrs by LC/MS/MS analysis; type: ADME, cell-based, Sus scrofa
Rattus norvegicus [38] = species on record: Rattus norvegicus; test: Toxicity in Sprague-Dawley rat assessed as antemortem parameters measured up to 6 months; type: organism-based; conditions: in vivo
Rattus norvegicus [39] = species on record: Rattus norvegicus; test: Toxicity in Sprague-Dawley rat assessed as postmortem parameters measured up to 6 months; type: organism-based; conditions: in vivo
[40] = molecular target: Beta-2 adrenergic receptor (Homo sapiens, UniProt P07550)
Description: Displacement of [125]I-cyanopindolol from human recombinant beta2 adrenergic receptor after 1 hr by scintillation counting method

[41] = molecular target: Beta-1 adrenergic receptor (Homo sapiens, UniProt P08588)
Chain of Beta-1 adrenergic receptor (P08588 whole entry): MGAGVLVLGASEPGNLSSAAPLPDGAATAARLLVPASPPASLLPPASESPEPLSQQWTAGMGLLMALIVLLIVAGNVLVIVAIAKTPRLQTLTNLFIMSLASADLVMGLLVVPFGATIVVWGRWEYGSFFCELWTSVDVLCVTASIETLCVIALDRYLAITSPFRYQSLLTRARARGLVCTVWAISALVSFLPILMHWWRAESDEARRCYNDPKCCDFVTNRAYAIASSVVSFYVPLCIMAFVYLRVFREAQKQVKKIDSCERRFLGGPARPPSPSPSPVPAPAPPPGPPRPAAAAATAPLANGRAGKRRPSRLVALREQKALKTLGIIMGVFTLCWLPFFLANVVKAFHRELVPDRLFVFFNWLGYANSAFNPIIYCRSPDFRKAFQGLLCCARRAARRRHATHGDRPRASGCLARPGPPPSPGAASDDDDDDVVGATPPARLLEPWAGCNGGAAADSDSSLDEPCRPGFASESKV
Description: Displacement of [125]I-cyanopindolol from recombinant human beta1 adrenergic receptor after 1 hr by scintillation counting method

Structure (SMILES): O=C(Nc1ccc(C[C@@H]2CC[C@H]([C@H](O)c3ccccc3)N2)cc1)[C@@H]1CCc2nccc(=O)n21 [VIBEGRON]
- Activity (Cynomolgus monkey [1]): Non-toxic
- half-life [2]: 7 h
- fAUC/dose (Cynomolgus monkey [3]): 500 nM·h/mg/kg
- fraction unbound [4]: 0.58
- IC50 (Cytochrome P450 1A2): > 100 µM
- max activation [5]: 89%
- max activation [6]: 103%
- IC50 [7]: > 10 µM
- logD [8]: 0.9
- IC50 [9]: > 30 µM
- IC50 (Cytochrome P450 2D6): > 100 µM
- IC50 (Cytochrome P450 2C9): > 100 µM
- max activation [10]: 84%
- clearance [11]: 14 mL/min/kg
- clearance [12]: 16 mL/min/kg
- CL free (Canis familiaris): 37 mL/min/kg
- CL free (Rhesus monkey [13]): 33 mL/min/kg
- half-life [14]: 7 h
- AUC/dose (Rhesus monkey [15]): 540 nM·h/mg/kg
- fAUC/dose (Rattus norvegicus [16]): 113 nM·h/mg/kg
- bioavailability [17]: 44%
- bioavailability [18]: 23%
- fraction unbound [19]: 0.21
- fraction unbound [20]: 0.41
- fraction unbound [21]: 0.49
- CLint scaled [22]: < 10 mL/min/kg
- remaining at 24 h [23]: 100%
- remaining at 24 h [24]: 93%
- EC50 [25]: 0.086 µM
- max activation [26]: 87%
- EC50 [27]: 0.0071 µM
- Activity (Rattus norvegicus [28]): Dose-dependent effect
- Activity (Rattus norvegicus [29]): Dose-dependent effect
- Activity (Rattus norvegicus [30]): Dose-dependent effect
- minimal effective dose (Rattus norvegicus [30]; 0.75 h, read-out: MED): 0.3 mg/kg
- dose excreted at 48 h [31]: 32%
- dose excreted at 48 h [32]: 87%
- dose excreted at 48 h [33]: 83%
- TDI (Cytochrome P450 3A4): Not Active
- Activity (Hepatocyte): Not Active
- EC50 [34]: > 30 µM
- solubility [35]: > 4000 µg/mL
- solubility [36]: > 4000 µg/mL
- solubility [37]: > 4000 µg/mL
- Papp at 3 h, 5 µM (MDR1 (human)): 2.4 ×10⁻⁶ cm/s
- Activity (Rattus norvegicus [38]): Non-toxic
- Activity (Rattus norvegicus [39]): Non-toxic
- IC50 [40]: > 20 µM
- IC50 [41]: > 20 µM
